Data published in patent US9415047B2, “Use of benzo five-membered nitrogen heterocyclic piperazine or piperidine derivatives” (Liaoning Emmy Biological Pharmaceutical Co., Ltd., priority 2012, dated 2016).
Entries after “also recorded” stand apart in the source; their conditions may differ.

Assays:
[1] = tested on: AD constricted rabbit aorta; assay: Relaxing effects on vascular smooth muscle constricted by adrenaline hydrochloride (AD) in vitro; conditions: Oryctolagus cuniculus; relaxation of rabbit aorta constricted by adrenaline (10^−5 mol/L); mean±SEM, n=5
In short: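 Rabbit aortic strips in K-H solution precontracted with adrenaline hydrochloride (10^−5 mol/L) after a reproducible second contraction; compounds added cumulatively over ranges from 1×10^−10 up to 1×10^−2 mol/L depending on the compound series. Relaxation expressed as % of maximal relaxation versus −log concentration, mean±SEM, n=5.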

[2] = tested on: NA constricted rabbit aorta; assay: Relaxing effects on vascular smooth muscle constricted by noradrenaline (NA) in vitro; conditions: Oryctolagus cuniculus; relaxation of rabbit aorta constricted by noradrenaline (10^−5 mol/L); mean±SEM, n=5
In short: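 Rabbit aortic rings in K-H solution, pre-tested with adrenaline (10^−5 mol/L), washed and re-equilibrated 60 min, then constricted with noradrenaline (10^−5 mol/L). Compounds added cumulatively from 1×10^−10 up to 1×10^−2 or 1×10^−3 mol/L; relaxation expressed as % of maximal relaxation versus −log concentration (mean±SEM, n=5).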

α1 receptor = assay: Antagonism of accumulative constriction of rabbit aorta by phenylephrine (α-receptor agonist); conditions: agonist (R)-phenylephrine
Procedure: PE was also added by using the same method 15 min later. […] The curve was shown in FIG. 21 after positive drug doxazosine mesylate (10^−7 mol/L) was added.

Calcium Channel (Ca^2+) = assay: Antagonism of accumulative constriction of rabbit aorta by CaCl2; conditions: calcium free high kalium depolarization
Procedure: (§2) Rabbits were hit to be dizzy, with thoracic cavity quickly cut open, descending aorta exposed, connective tissues and surrounding fatty tissues (for hydroxytryptamine receptor antagonism test, endothelia should be removed with smooth stainless steel rod) removed, the aorta was cut into 3-5 mm vascular rings which were penetrated together with a steel wire with one end fixed on ventilation hook, another end on pressure tonotransducer. The aorta rings were put into a bath tube with 20 ml of nutritional solution, and the tension changes were recorded by using the recorder. The temperature of bath tube was maintained at 37±0.5° C., and mixed gas (95% O2+5% CO2) was ventilated at a rate of I-2 bubbles/second. The initial load of the sample was 1.5 g, nutritional solution was changed for every 20 min. The sample was balanced for 2 hours, and the experiment would be started when baseline became stable.
After sample tension became stable, calcium K-H solution was used to flush the sample for 3 times, and incubated with calcium free K-H solution for 40 min. Calcium free high kalium solution was added into the sample for depolarization for 20 min, then CaCl2 (10^−6-10^−2 mol/L) was added into bath tube till maximal response was achieved, and then waveform was recorded. Then K-H solution was used to flush the sample repeatedly, the K-H solution was changed for every 20 min, and the sample was balanced for 60 min. […]
After sample tension became stable, calcium K-H solution was used to flush the sample for 3 times, and incubated with calcium free K-H solution for 40 min. Calcium free high kalium solution was added into the sample for depolarization for 20 min, then CaCl2 (10^−6-10^−2 mol/L) was added into bath tube till maximal response was achieved, and then waveform was recorded. […] Calcium free high kalium solution was added into the sample for depolarization for 20 min, then amlodipine (10^−7 mol/L) was added into bath tube, which was incubated for 15 min, then CaCl2 (10^−6-10^−2 mol/L) was added by using the same method till maximal response was achieved, and then waveform was recorded. […]

[3] = Experiment on acute toxicity; conditions: both sexes, Kunming, mouse, in vivo, mice
Description: Kunming mice (Experimental Animal Center, China Medical University) were used, half male and half female, 18-22 g, brief probability unit method was used to test the acute toxicity of the compound.
Ten Kunming mice (Experimental Animal Center, China Medical University) were used, half male and half female, 18-22 g, brief probability unit method was used to test the acute toxicity of the compound.

Kunming mice = assay: Marrow micronucleus test on mice; assay type: in vivo
Procedure: Ten Kunming mice (Experimental Animal Center, China Medical University), half male and half female, were used. Compound II-2 was administered via gastric gavage at 120 mg/kg/day, and II-85 was administered to 74 mg/kg/day. The drug was administered for 4 days continuously. Marrow micronucleus test was performed on day 5.
Mice in positive control group were administered cyclophosphane at 60 mg/kg/day. Mice in negative control group were administered normal saline at 0.1 ml/10 g/day. The drug was administered for 4 days continuously. Marrow micronucleus test was performed on day 5.
The mice were killed by snapping neck, and then femur and sternum were excised, with blood and muscles removed, epiphysis cut off. Then marrow from sternum was squeezed to clean glassslide with bovine serum by using a pair of hemostatic forceps, or marrow on femur was flushed directly with bovine serum onto clean glassslide. Then the substance on glassslide were mixed well and smeared. Then the prepared and dried marrow smears were put into staining tank with methanol, fixed for 15 min, picked out to dry in the open air. After marrow smears were dried, it would be stained in freshly prepared Giemsa solution (1 volume of Giemsa stock solution and 9 volumes of pH 6.8 phosphate buffer) for 10 min, staining solution was flushed away with little stream. Then the smear was dried in the open air and observed under a microscope.

SD rats = assay: Effects on blood pressure of SD rats anesthetized with urethane; assay type: in vivo; conditions: for diastolic blood pressure (DBP) / mean artery pressure (MAP) / systolic blood pressure (SBP): 1.5 mg/kg gastric gavage, n = 5
Procedure: (§1) Four SD rats were anesthetized with urethane ([…]), after vital signs became stable, blood pressure was measured by common carotid intubation. After blood pressure became stable, compound II-2 was administered at 4.0 mg/kg via gastric gavage, blood pressure changes with time were observed and recorded.
as §1, with “Five” for “Four”, “rats (provided by Experimental Animal Center, China Medical University)” for “rats”, “II-85” for “II-2”, “1.5” for “4.0”

5-HT2A receptor = 5-HT2A receptor (Oryctolagus cuniculus, UniProt G1SYA7); assay: Antagonism of accumulative constriction of rabbit aorta by 5-HT
Chain of 5-HT2A receptor (G1SYA7 1-469): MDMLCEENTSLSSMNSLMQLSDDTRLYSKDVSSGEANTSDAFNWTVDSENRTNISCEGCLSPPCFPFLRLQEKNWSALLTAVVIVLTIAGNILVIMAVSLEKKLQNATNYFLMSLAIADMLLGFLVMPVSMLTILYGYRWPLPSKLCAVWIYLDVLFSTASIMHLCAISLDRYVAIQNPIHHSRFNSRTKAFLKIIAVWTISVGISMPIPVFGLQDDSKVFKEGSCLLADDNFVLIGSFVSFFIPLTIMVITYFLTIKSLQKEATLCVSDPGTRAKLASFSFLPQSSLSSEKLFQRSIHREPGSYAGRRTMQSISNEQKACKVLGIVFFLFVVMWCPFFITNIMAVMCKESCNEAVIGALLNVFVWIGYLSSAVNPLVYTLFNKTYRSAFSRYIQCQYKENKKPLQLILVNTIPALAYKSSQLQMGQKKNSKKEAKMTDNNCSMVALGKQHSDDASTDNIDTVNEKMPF
Procedure: as §2
After sample tension became stable, a piece of waveform was recorded, 5-HT (10^−7-3×10^−4 mol/L) was added into the bath tube until maximal response, then waveform was recorded. […] 5-HT was also added by using the same method 20 min later. The maximal response was considered 100%, 5-HT constriction percentage was used as Y axis, negative logarithms of different concentrations of 5-HT were used as X axis to draw dose effective curve.
After sample tension became stable, a piece of waveform was recorded, 5-HT (10^−8-10^−3 mol/L) was added into the bath tube until maximal response, then waveform was recorded. […] 5-HT was also added by using the same method 20 min later. The maximal response was considered 100%, 5-HT constriction percentage was used as Y axis, negative logarithms of different concentrations of 5-HT were used as X axis to draw dose effective curve (data were expressed in mean±SEM ( ? ), *P<0.05, **P<0.01, n=7).
After sample tension became stable, a piece of waveform was recorded, 5-HT (10^−8-3×10^−4 mol/L) was added into the bath tube until maximal response, then waveform was recorded. […] 5-HT was also added by using the same method 20 min later. […]

SMILES: Fc1ccc2c(C3CCN(CCCn4nnc5ccccc54)CC3)noc2c1 [II-85, N-(3-(1H-benzotriazole-1-yl)propyl)4-(3-(6-fluorobenzisoxazolyl))piperidine]
- EC50 [1]: 50.1 nM
- EC50 [2]: 30.9 nM
- PA2 value to resist constriction of rabbit aorta by PE (α1 receptor): 8.62±0.11
- PA2 value to resist constriction of rabbit aorta by CaCl2 (Calcium Channel (Ca^2+)): 6.10±0.13
- LD50 ([3]; intraperitoneal, intraabdominal injection): 108 mg/kg
- LD50 ([3]; po, gastric gavage): 222 mg/kg
- marrow micronucleus test result (Kunming mice): negative
- micronuclei cells in 1000 polychromatic erythrocytes (Kunming mice; dosed 4 days, test on day 5, II-2 120, II-85 74, cyclophosphane 60 mg/kg/day): 2.5±0.373%
- diastolic blood pressure (DBP) (SD rats; 0 min post dosing): 103.06 mmHg
- mean artery pressure (MAP) (SD rats; 0 min post dosing): 116.63 mmHg
- systolic blood pressure (SBP) (SD rats; 0 min post dosing): 143.77 mmHg
- diastolic blood pressure (DBP) (SD rats; 15 min post dosing): 75.36 mmHg
- mean artery pressure (MAP) (SD rats; 15 min post dosing): 91.98 mmHg
- systolic blood pressure (SBP) (SD rats; 15 min post dosing): 125.22 mmHg
- diastolic blood pressure (DBP) (SD rats; 30 min post dosing): 68.68 mmHg
- mean artery pressure (MAP) (SD rats; 30 min post dosing): 84.42 mmHg
- systolic blood pressure (SBP) (SD rats; 30 min post dosing): 115.90 mmHg
- diastolic blood pressure (DBP) (SD rats; 60 min post dosing): 75.49 mmHg
- mean artery pressure (MAP) (SD rats; 60 min post dosing): 91.24 mmHg
- systolic blood pressure (SBP) (SD rats; 60 min post dosing): 122.75 mmHg
- diastolic blood pressure (DBP) (SD rats; 90 min post dosing): 83.32 mmHg
- mean artery pressure (MAP) (SD rats; 90 min post dosing): 97.37 mmHg
- systolic blood pressure (SBP) (SD rats; 90 min post dosing): 125.48 mmHg
- diastolic blood pressure (DBP) (SD rats; 120 min post dosing): 83.71 mmHg
- mean artery pressure (MAP) (SD rats; 120 min post dosing): 96.77 mmHg
- systolic blood pressure (SBP) (SD rats; 120 min post dosing): 122.89 mmHg
- diastolic blood pressure (DBP) (SD rats; 150 min post dosing): 95.06 mmHg
- mean artery pressure (MAP) (SD rats; 150 min post dosing): 108.73 mmHg
- systolic blood pressure (SBP) (SD rats; 150 min post dosing): 136.08 mmHg
- diastolic blood pressure (DBP) (SD rats; 180 min post dosing): 86.22 mmHg
- mean artery pressure (MAP) (SD rats; 180 min post dosing): 100.11 mmHg
- systolic blood pressure (SBP) (SD rats; 180 min post dosing): 127.90 mmHg
- diastolic blood pressure (DBP) (SD rats; 210 min post dosing): 97.96 mmHg
- mean artery pressure (MAP) (SD rats; 210 min post dosing): 111.02 mmHg
- systolic blood pressure (SBP) (SD rats; 210 min post dosing): 137.13 mmHg
- diastolic blood pressure (DBP) (SD rats; 240 min post dosing): 102.84 mmHg
- mean artery pressure (MAP) (SD rats; 240 min post dosing): 115.95 mmHg
- systolic blood pressure (SBP) (SD rats; 240 min post dosing): 142.19 mmHg
- time until blood pressures recovered to those before drug dosing (SD rats; anesthetized SD rats, gastric gavage): 6 h
- oral absorption (SD rats; in vivo bulk testing on rats): good oral absorption
- hypotensive effects (SD rats; rats, gastric gavage): obvious hypotensive effects; also recorded: good hypotensive effects
- Kb (5-HT2A receptor): 0.871 nM
